These compounds were tested against T1, recombinant human caspase-3 (Homo sapiens, UniProt P42574) (assay: Caspase-Glo […] luminescence assay, dose-response).
T1 sequence (P42574 29-175): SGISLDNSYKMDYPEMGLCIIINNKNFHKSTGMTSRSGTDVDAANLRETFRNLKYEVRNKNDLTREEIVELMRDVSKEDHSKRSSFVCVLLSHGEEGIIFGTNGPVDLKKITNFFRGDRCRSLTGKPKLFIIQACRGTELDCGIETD
T1 sequence (P42574 176-277): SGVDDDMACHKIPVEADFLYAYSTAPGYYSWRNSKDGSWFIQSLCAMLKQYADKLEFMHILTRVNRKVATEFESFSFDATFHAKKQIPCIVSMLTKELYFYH
Format: biochemical

| IC50 [µM] | Compound |
| --- | --- |
| 10.4 ± 0.5 | O=C(O)c1cc(-c2ccc(F)cc2F)ccc1O [Diflunisal] |
| 47 ± 6.07 | CC(C(=O)O)c1cccc(Oc2ccccc2)c1 (stereo not drawn) [Fenoprofen] |
| 54.3 ± 0.6 | CC(C(=O)O)c1ccc2c(c1)Cc1cccnc1O2 (stereo not drawn) [Pranoprofen] |

— doi:10.1101/356956v1 (biorxiv, 2018)
